Measured values: patent US12384774B2, “Polymorph of CDK9 inhibitor and preparation method for polymorph and use thereof” (GenFleet Therapeutics (Shanghai) Inc., priority 2019, dated 2025)
Values after ≈ are worked out from the molar mass of the structure shown. Counter-ions that a name gives are not always drawn. Like-named read-outs stand apart in the source and are kept apart here.

What was measured:
[1] = Solubility test in PBS buffers of different pH, water and normal saline at room temperature; assay type: physicochemical; conditions: for solubility: thermodynamic from solid
Method: Weigh about 50 mg of the crystal form 1 of the maleate of the compound of formula (I) prepared in Example 2, which was added into different bottles. Then PBS buffers with different pH values were prepared. Each of them was added in batches with a small amount into each of the above bottles at room temperature till the crystal form in each bottle was just dissolved. The total amount of the solvent was recorded and the solubility was calculated.
The amorphous form of the free base of the compound of formula (I) was subjected to the same solubility study as above-mentioned.

[2] = tested on: Acute myeloid leukemia cells MV-4-11; assay: Cell proliferation inhibition, CellTiter-Glo; assay type: cell-based; conditions: MV-4-11 cells
Method: Weigh 5.61 mg of the crystal form 1 of the maleate of the compound of formula (I) prepared in Example 2, which was dissolved it in 74.7 μL of DMSO.
Configure 1000× compound storage plate (or called 1000× storage medicine plate): the 100 mM compound storage solution was diluted with DMSO. The starting concentration was 10 mM and 9 concentration gradients (th concentration of the storage solution was 10 mM, 3 mM, 1 mM, 0.3 mM, 0.1 mM, 0.03 mM, 0.01 mM, 0.001 mM and 0.0001 mM respectively) were set. The compound storage plate was sealed with a sealing tape, and stored in a refrigerator at −20° C. for later use.
Acute myeloid leukemia cells MV-4-11 (purchased from ATCC) were selected and seaded into a 96-well plate (140 μL per well) at a density of 5000/well and cultured overnight in a incubator with 37° C., 5% CO2.
1000×storage medicine plates were taken out and melt at room temperature while avoiding light. Then prepare 15× intermediate medicine plates (78.8 μL of medium and 1.2 μL of medicine-containing DMSO storage solution), which were mixed well. 10 μL of the medicine-contained medium (15×) was added into the 96-well cell plates (the final concentration was 10 μM, 3 μM, 1 μM, 0.3 μM, 0.1 μM, 0.03 μM, 0.01 μM, 0.001 μM and 0.0001 μM, respectively, and the final concentration of DMSO was […]), which were gently patted to well-mixed, then put it in a incubator with 37° C., 5% CO2, and continued to incubate for 24 hours.
Then the CellTiter-Glo method was used to detect vitality of the cell under the conditions of each drug concentration, and the rate of cell proliferation inhibition under the corresponding conditions was calculated.

[3] = Hygroscopicity observation on the hydrochloride (Comparative Example 2); assay type: physicochemical; conditions: solid in crystal form obtained with hydrochloric acid
Method: Similarly, by using the method described in Example 1 or Example 9, the according salt of the compound of formula (I) were prepared with the hydrochloric acid instead of the maleic acid or the fumaric acid.

[4] = Stability test in a 60° C. drying oven (impurity, content, XRPD); assay type: physicochemical; conditions: for Content % / Total impurity %: 60° C. drying oven, 21 days; for change in content or in the characteristic peaks of the XRPD pattern: after 21 days at high temperature (60° C.)
[5] = as above; assay type: physicochemical; conditions: for Content % / Total impurity %: 60° C. drying oven
Method: The crystal form A of the fumarate of the compound of formula (I) prepared in Example 9 and the crystal form 1 of the maleate of the compound of formula (I) prepared in Example 2 were placed in a 60° C. drying oven for different days (0 days, 7 days, 21 days). Samples were collected and detected to investigate the stability of the crystal forms.
The amorphous form of the free base of the compound of formula (I) was subjected to the same stability study as above-mentioned.
The crystal form 2 of the maleate of the compound of formula (I) prepared in Example 3 was placed in a 60° C. drying oven, and samples were taken and tested for different days (0 days, 7 days, 14 days and 30 days) to investigate the stability of the crystal form.

[6] = Hygroscopicity test by dynamic moisture adsorption instrument (DVS); assay type: physicochemical; conditions: for weight increasement due to moisture absorption: 25° C.
Method: Experimental method: this test was carried out by a dynamic moisture adsorption instrument. Weigh 10 mg of a solid sample, which was placed on a balance. The humidity in the sample room was controlled through the program. The sample was placed under the same temperature and different humidity conditions for 7 days, then the quality change of the tested sample was measured with relative humidity. Detection procedure: the humidity change was 0%-95%-0%; the test temperature was 25° C.
The amorphous form of the free base of the compound of formula (I) was subjected to the same hygroscopicity study as above-mentioned. […] When the relative humidity is 95%, the weight increasement due to moisture absorption can reach 9.5%, and the sample after moisture absorption is not easy to desorb.

[7] = amorphous form, 60° C., 7th and 14th day

Compound: COC[C@@H](C)N[C@H]1CC[C@H](Nc2cc(-c3csc(NCC4(C#N)CCOCC4)n3)c(Cl)cn2)CC1 [listing 1 of 2 here]
- solubility ([1]; PBS buffer, pH 6, aqueous buffer, PBS 6.0, room temperature, read-out: Solubility (S, mg/mL)): 41 mg/mL (≈ 79 mM)
- solubility ([1]; PBS buffers of different pH, water and normal saline, aqueous buffer, PBS 6.0-7.5, water, normal saline, read-out: solubility in each of the above-mentioned solvents (summary)): 30 to 60 mg/mL (≈ 57.8 to 116 mM)
- solubility ([1]; normal saline, saline or isotonic, normal saline, room temperature, read-out: Solubility (S, mg/mL)): 50 mg/mL (≈ 96.3 mM)
- IC50 ([2]; Homo sapiens, MV4-11, 24 hours incubation, CellTiter-Glo, read-out: absolute half inhibitory concentration (ABsIC50)): 32 nM

Compound: COC[C@@H](C)N[C@H]1CC[C@H](Nc2cc(-c3csc(NCC4(C#N)CCOCC4)n3)c(Cl)cn2)CC1 [listing 2 of 2 here]
- hygroscopicity (in words) [3]: very hygroscopic

Compound: COC[C@@H](C)N[C@H]1CC[C@H](Nc2cc(-c3csc(NCC4(C#N)CCOCC4)n3)c(Cl)cn2)CC1 [crystal form 1 of the maleate of the compound of formula (I)]
- Content % [4]: 99.86%
- Total impurity % [4]: 0.14%
- change in content or in the characteristic peaks of the XRPD pattern [4]: basically no change
- Solubility (S, mg/mL) ([1]; PBS pH 6.5, room temperature): 45 mg/mL
- Solubility (S, mg/mL) ([1]; PBS pH 7.0, room temperature): 57 mg/mL
- Solubility (S, mg/mL) ([1]; PBS pH 7.5, room temperature): 62 mg/mL
- Solubility (S, mg/mL) ([1]; water, room temperature): 31 mg/mL
- Content % ([5]; 0 day): 99.91%
- Total impurity % ([5]; 0 day): 0.09%
- Content % ([5]; 7 days): 99.88%
- Total impurity % ([5]; 7 days): 0.12%
- effect on cell growth ([2]; concentration range 0.0001 μM to 0.01 μM): no significant changes in cell growth
- effect on cell growth ([2]; concentration range 0.03 μM to 10 μM): significant inhibitory effect
- hygroscopicity (in words) ([6]; environment humidity RH=60%): weak
- weight increasement due to moisture absorption ([6]; environment humidity RH=60%): about 1%

Compound: COC[C@@H](C)N[C@H]1CC[C@H](Nc2cc(-c3csc(NCC4(C#N)CCOCC4)n3)c(Cl)cn2)CC1 [crystal form 2]
- characteristic peaks of the XRPD pattern ([4]; after 14 days at high temperature (60° C.)): basically unchanged
- Content % ([5]; 0 day): 99.13%
- Total impurity % ([5]; 0 day): 0.87%
- Content % ([5]; 7 days): 98.56%
- Total impurity % ([5]; 7 days): 1.44%
- Content % ([5]; 14 days): 97.73%
- Total impurity % ([5]; 14 days): 2.27%

Compound: COC[C@@H](C)N[C@H]1CC[C@H](Nc2cc(-c3csc(NCC4(C#N)CCOCC4)n3)c(Cl)cn2)CC1 [crystal form A of the fumarate of the compound of formula (I]
- Content % [4]: 99.22%
- Total impurity % [4]: 0.78%
- change in content or in the characteristic peaks of the XRPD pattern [4]: basically no change
- Content % ([5]; 0 day): 99.38%
- Total impurity % ([5]; 0 day): 0.62%
- Content % ([5]; 7 days): 99.31%
- Total impurity % ([5]; 7 days): 0.69%
- hygroscopicity (in words) ([6]; environment humidity RH=60%): weak
- weight increasement due to moisture absorption ([6]; environment humidity RH=60%): about 1%

Compound: COC[C@@H](C)N[C@H]1CC[C@H](Nc2cc(-c3csc(NCC4(C#N)CCOCC4)n3)c(Cl)cn2)CC1 [free base of the compound of formula (I), 4-(((4-(5-chloro-2-(((1R,4r)-4-(((R)-1-methoxypropyl-2-yl)amino)cyclohexyl)amino)pyridin-4-yl)thiazol-2-yl)amino)methyl)tetrahydro-2H-pyran-4-carbonitrile]
- stability (in words) [4, 7]: poor stability
- solubility ([1]; PBS buffer, pH 7.2, aqueous buffer, PBS pH 7.2, room temperature, read-out: Solubility (S, mg/mL)): ~10.1 mg/mL
- Solubility (S, mg/mL) ([1]; PBS pH 6.5, room temperature): about 15.10 mg/mL
- Solubility (S, mg/mL) ([1]; PBS pH 7.0, room temperature): about 12.5 mg/mL
- Solubility (S, mg/mL) ([1]; PBS pH 7.5, room temperature): about 0.44 mg/mL
- solubility compared with crystal form 1 of the maleate (in words) ([1]; same experiment conditions, amorphous free base): significant lower solubility
- Solubility (S, mg/mL) ([1]; water, room temperature): about 0.1 mg/mL
- Content % ([5]; 0 day): 99.50%
- Total impurity % ([5]; 0 day): 0.50%
- Content % ([5]; 7 days): 98.42%
- Total impurity % ([5]; 7 days): 1.58%
- Content % ([5]; 14 days): 97.44%
- Total impurity % ([5]; 14 days): 2.56%
- change in the character (appearance) [5, 7]: changes from a yellow solid to a hard gelatinous substance
- hygroscopicity (in words) ([6]; environment humidity higher than 60%, amorphous form): quite strong hygroscopicity
- weight increasement due to moisture absorption ([6]; relative humidity 95%): 9.5%
